What was measured:
[1] = 20-22 degrees C; high level disinfectant; cited from earlier work
mycobacterial strains = details: cited from earlier work
Pseudomonas aeruginosa [2] = details: cited from earlier work
Pseudomonas aeruginosa [3] = experiment: Chlorine dioxide and TTPC versus Pseudomonas aeruginosa, log reduction; format: cell-based; details: ClO2 of 10 ppm alone; 10^5 ml; 30 min exposure
Protocol: A test with chlorine dioxide (ClO2) and TTPC versus Pseudomonas aeruginosa was performed at 10^5 ml with ClO2 of 10 ppm. This alone gave a 1 log reduction in 30 min exposure. TTPC alone at 50 ppm gave a 2 log reduction. The combination of ClO2 and TTPC of 5 ppm and 10 ppm gave a 5 log reduction in 30 min.

biofilm = experiment: Biofilm removability; details: secondary oil and gas recovery
Description: (§1) As such there is actually a slight increase in planktonic microbes which are more susceptible to biocide/TTPC effects. Individual biocides affect the physiology of the cell quite differently. […] This is an example of enhanced quantum complementarity. The importance of the environmental parameter cannot be underestimated based upon the foregoing results. TTPC has a similar margin of exposure as the quats for oil field imputability with friction reducers for killing of aerobic organisms. […] The minimum inhibitory concentration (MIC) for the TTPC usage is 50-500 ppm. Therefore it is safe regarding corrosiveness, an important facet in well treatment. […] The faster cidal action is due basically to the chemistry difference between amine quats and phosphonium salts. The ammonium quats have longer alkyl chains. Instead of amine the difference is a phosphonium ion but also importantly is the alkyl chain length. It has been determined that there is an optimal length for anti-bacterial effectiveness. It was dependent upon chain length and attachment moieties. […] Usually the longer chain was better but not in these cases. […] TTPC did. There are great differences between Gram + and Gram − bacteria in their cell walls. […] The Gram − wall is complicated. It has in addition to the wall of G+ an outer membrane of lipopolysaccharides and phospholipids that protect the cell.

[4] = system: sulfur reducing bacteria (SRB); experiment: Efficacy in oil/gas fields on sulfur reducing bacteria; format: cell-based
Description: as §1

[5] = system: acid-producing bacteria (APB); experiment: Effective kill time of acid-producing bacteria; format: cell-based
Protocol: When TTPC was added to the core Glutaraldehyde or OPA as a substitute for dual chain quaternary ammonium the effective kill time was twice as fast (2×) based upon log reduction. Similarly, the TTPC reduced the effective kill time of acid-producing bacteria (APB) by almost 50%. Although the kill speed of TTPC alone was 20% slower than the glut/quat formula of copending U.S. patent application Ser. No. 12/584,650, when TTPC is combined with glutaraldehyde as a substitute for dual chain quaternary ammonium the kill time increased to four times 4× faster, evidencing the synergism of the present combination.

aerobic organisms = experiment: Killing of aerobic organisms in oil frac water (5 log reduction); format: cell-based; details: based upon a 5 log reduction in oil frac water
Description: as §1

For O=Cc1ccccc1C=O [OPA, ortho-phthalaldehyde], the disinfection time [1] is listed as “twelve”, the “bactericidal activity against mycobacterial strains” value (mycobacterial strains) is listed as “limited activity” and the “bactericidal activity against Pseudomonas aeruginosa” value (Pseudomonas aeruginosa [2]) is listed as “good”.

Work on [O][Cl+][O-] [ClO2, chlorine dioxide] yielded a log reduction (Pseudomonas aeruginosa [3]) of 1 log.

For CCCCCCCCCCCCCC[P+](CCCC)(CCCC)CCCC.[Cl-] [TTPC, tributyl tetradecyl phosphonium chloride], the “biofilm removability compared to quaternary ammonium” value (biofilm) was “superior biofilm removability”, the “efficacy on sulfur reducing bacteria (SRB)” value [4] was “almost equally effective” and the “reduction of effective kill time of acid-producing bacteria (APB)” value [5] was roughly 50%. For the same compound, the “effectiveness relative to the original glut/quat formula” value (aerobic organisms) was “twice as effective”.
